Laboratory results: patent publication US4265901A, “2-Oxybenzimidazoline compounds” (priority 1979, dated 1981)
Where a name gives a salt, the structure may show the parent alone.

What was measured:
blowfly larvae [1] = test: Blowfly larvae fed on serum of dosed guinea pigs; format: in vivo, Phormia regina; conditions: guinea pig, serum at 24 hours
Method: (§1) Representative compounds of the present invention were evaluated against larvae of blowfly (Phormia regina) and against adult housefly (Musca domestica). In these evaluations, the candidate compound was administered to each of two male guinea pigs weighing from about 400 grams to about 1000 grams. Administration was via the intraperitoneal route, the compound having been formulated in sesame oil. At twenty-four hours following administration of the compound, blood was withdrawn from the guinea pigs. The serum portion was isolated and blowfly larvae and adult houseflies were fed on the serum. For the blowfly assay, 10 ml. of serum were placed in a test tube with a wick onto which 50 blowfly larvae were placed. The covered test tube was incubated at 27° C. for 24 hours, at which time efficacy of the candidate compound was determined as the percent mortality of the blowfly larvae, adjusted by normal mortality in a control, and reported according to the following rating scale:
(§2) Percent mortality was determined separately for each guinea pig.

adult housefly [2] = test: Adult houseflies fed on serum of dosed guinea pigs; format: in vivo, Musca domestica; conditions: guinea pig, serum at 24 hours
Method: as §1, §2
(§3) For the adult housefly test, 10 ml. of serum were employed to saturate a wick which was placed in a petri dish. Twenty-five chilled houseflies were placed in the dish which was then incubated for 24 hours at 27° C. and 50% relative humidity. After the end of the twenty-four hours, the efficacy of the candidate compound was determined as the percent mortality of housefly, adjusted as for blowfly by normal mortality in a control and reported according to the same scale as above.

adult housefly [3] = test: Efficacy against adult housefly, calves jugular infusion (Example 18); format: in vivo, Musca domestica; conditions: Evaluation I, calf 988, jugular infusion 0.66 mg/kg/day to day 10; day/hours per line
Method: as §3
(§4) On each day of the evaluation, immediately preceding that day's injection, a sample of blood was withdrawn from each calf. The concentration of the compound in the blood was determined; and the efficacy of the compound against adult housefly and blowfly larvae was assayed by the method described in Example 15. Efficacy was reported, however, as the percent of blowfly larvae or adult housefly which was killed. […]
Three evaluations were conducted sequentially with the compound of Example 2, 2-hydroxy-2-(1,1,2,2-tetrafluoroethyl)-4-nitro-6-(trifluoromethyl)benzimidazoline, sodium salt, administered daily to calves by jugular infusion of a solution of the compound in distilled water. As described in the preceding example, blood samples were withdrawn and analyzed for concentration of the compound and efficacy against adult housefly and blowfly larvae.

blowfly larvae [4] = test: Efficacy against blowfly larvae, calves intravenous injection (Example 17); format: in vivo, Phormia regina; conditions: daily i.v. 0.5 to 1.5 mg/kg escalating, day per line
Method: as §1
A group of three calves each weighing about 220 kilograms was employed. […]
as §4, with “15.” for “15. Efficacy was reported, however, as the percent of blowfly larvae or adult housefly which was killed.”

adult housefly [5] = test: Efficacy against adult housefly, calves intravenous injection (Example 17); format: in vivo, Musca domestica; conditions: daily i.v. 0.5 to 1.5 mg/kg escalating, day per line
Method: as §3
A group of three calves each weighing about 220 kilograms was employed. The compound of Example 2, 2-hydroxy-2-(1,1,2,2-tetrafluoroethyl)-4-nitro-6-(trifluoromethyl)benzimidazoline, sodium salt, was dissolved in distilled water and the resulting solution was administered by intravenous injection. Rates of administration increased throughout the evaluation period, from 0.5 to 1.5 mg./kg. of body weight, with each dose supplied for a period of 5 days (except the 1.5 mg./kg. dose, which was administered for 6 days).
as §4, with “15.” for “15. Efficacy was reported, however, as the percent of blowfly larvae or adult housefly which was killed.”

Compound | Efficacy Rating, Blowfly Larvae (blowfly larvae [1]; 1 mg./kg. i.p.) | Efficacy Rating, Blowfly Larvae (blowfly larvae [1]; 5 mg./kg. i.p.) | Efficacy Rating, Adult Housefly (adult housefly [2]; 1 mg./kg. i.p.) | Efficacy Rating, Adult Housefly (adult housefly [2]; 5 mg./kg. i.p.) | % Efficacy, Adult Housefly (adult housefly [3]) | % Efficacy, Blowfly Larvae (blowfly larvae [4]; calf 986) | % Efficacy, Blowfly Larvae (blowfly larvae [4]; calf 991) | % Efficacy, Adult Housefly (adult housefly [5]; calf 987) | % Efficacy, Adult Housefly (adult housefly [5]; calf 991)
O=[N+]([O-])c1cc(Cl)cc2c1NC(O)(C(F)F)N2 (stereo not drawn) [Example 5, 2-Hydroxy-2-(Difluoromethyl)-4-Nitro-6-Chlorobenzimidazoline, Calcium Salt] | 0 (none dead) | 0 (none dead) | 1 (<50% dead) | 1 (<50% dead) | – | – | – | – | –
O=[N+]([O-])c1cc(C(F)(F)F)cc2c1NC(O)(C(F)(F)C(F)F)N2 (stereo not drawn) [Example 2, 2-Hydroxy-2-(1,1,2,2-Tetrafluoroethyl)-4-Nitro-6-(Trifluoromethyl)Benzimidazoline, Sodium Salt, and Hydrate] | – | – | – | – | 100% | 100% | 100% | 100% | 100%
